Assay results from patent publication US5871779A, “Treatment of arthropathies with vanadate compounds or analogues thereof” (Mount Sinai Hospital Corporation, priority 1996, dated 1999).
Entries after “also recorded” stand apart in the source; their conditions may differ.

Experiments:
[1] = system: c-fos; assay: TNFα and bFGF induced c-fos mRNA in chondrocytes (Northern blot); assay type: cell-based, bovine; conditions: 30 mM, 2 hours preincubation
Protocol: Chondrocyte cultures were stimulated with H2 O2 (100 μM) at different time points as indicated. […] Chondrocyte cultures were preincubated with NAC (30 mM) or Asc (100 μM) for 2 hours before the addition of bFGF (10 ng/ml) or TNFα (30 ng/ml) for 30 minutes. Both human recombinant TNFα and bFGF were dissolved in phosphate buffered saline with 0.1% bovine serum albumin. NAC and Asc were first dissolved in Ham's F12 medium containing 5% (v/v) fetal bovine serum, then neutralized with sodium hydroxide. Total RNA from bovine articular chondrocytes was isolated and the c-fos mRNA levels were determined by Northern blot analysis as described herein. The blots were subsequently stripped of DNA and re-probed with ^32 p-labelled rat β tubulin cDNA.
Chondrocyte cultures were pretreated with DPI (2 μM) for 30 minutes before the addition of TNFα (30 ng/ml) or bFGF (10 ng/ml) for 30 minutes. Measurements of c-fos and tubulin mRNA levels were as described in Example 11.

[2] = system: collagen induced arthritis; assay: collagen induced arthritis, clinical arthritis score; assay type: in vivo, rats; conditions: NAC 100 mg/kg/day s.c.; listed as NAC
Protocol: Syngeneic 8 week old female Louvain (LOU) rats were fed with standard lab chow and housed in the vivarium at the University of California, Los Angeles. […] E. et al., J. Exp. Med., 146: 857-868, 1977). […] Rats with definite arthritis on Day 10 post immunization were randomized into two groups. Control rats (n=8) received only NAC at a dose of 100 mg/kg/day s.c. NAC was prepared as a 3% aqueous solution. […] Clinical arthritis severity of each limb was scored daily based on an objective integer scale of 0-4 (Trentham, D. E. et al., J. Exp. Med., 146: 857-868, 1977). A score of 0 indicated an unaffected limb, while a score of 4 represented fulminant erythema and edema involving distal digits. The arthritic index of a rat is defined as the sum of its four limb scores. Since CIA typically involves only the hind limbs, an arthritic index of 6 to 8 is considered severe arthritis.

[3] = system: collagenase; assay: collagenase production by chondrocytes (ELISA); assay type: cell-based, bovine; conditions: summary statement
Protocol: The effect of orthovanadate and N-acetylcysteine on fos, jun and collagenase expression were examined. Bovine articular chondrocytes were isolated and plated as previously described (Kandel R. A. et al. Biochim. Biophys. Acta. 1053, 130-134, 1990). In order to determine the effect of orthovanadate on IL 1 and PMA (phorbol ester) induced responses, chondrocytes were incubated with orthovanadate (100 μM) for 2 hours before stimulation with IL 1 (10 ng/ml) or PMA ([…]). Collagenase production was determined by incubating chondrocytes for 24 hours with IL 1 or PMA and the cell conditioned medium was assayed for collagenase activity using an ELISA procedure as described previously (Kandel et al. supra). PLA2 activity was measured by incorporating ^3 H-arachidonic acid (^3 H-AA) into the cells and then incubating the cells with medium containing 1 mg/ml BSA, either alone or in the presence of IL 1 or PMA, for 10 min. as previously described (Conquer, J. A. […], Biochim. Biophys. Acta. 1134, 1-6). The amount of ^3 H-AA liberated into the supernatant was determined. To measure PGE2 production, chondrocytes were incubated for 6 hours in Ham's F12 medium, either alone or with IL 1 or PMA. The supernatant was analyzed by RIA using an antibody specific for PGE2 (Dr. S. A. Jones, Mount Sinai Hospital, Toronto, Canada). In order to examine the expression of c-fos and c-jun, chondrocytes were incubated for 1 hour in the presence of IL-1, PMA or AA (3 μM). Chondrocytes were washed in PBS and the total RNA extracted as previously described (Cruz. et al, 1991, Biochem. J. 277, 327-330). RNA samples were run on formaldehyde agarose gels and transferred to nylon membrane for northern analysis using cDNA probes for c-fos and c-jun.

[4] = system: fos; assay: fos / c-fos mRNA expression in chondrocytes (Northern blot); assay type: cell-based, bovine; conditions: in the presence of IL 1; N-acetylcysteine 20 mM for 20 min
Protocol: (§1) The cytokine interleukin 1 (IL 1) has been used to identify the intermediate second messengers which regulate the expression of fos and jun.
In order to elucidate this possibility, the effect of DPI on fos and jun mRNA levels induced by IL 1 was investigated. RNA from chondrocytes treated with IL 1 in the presence and absence of DPI were analyzed by Northern blot analysis using either fos or collagenase cDNA probes.
Since superoxides are rapidly converted to hydrogen peroxide in the cell by superoxide dismutase, whether hydrogen peroxide could mimic the effect of IL 1 in the induction of fos expression was investigated. RNA was extracted from chondrocytes (Kandel et al. supra) treated with H2 O2 for 30, 60 and 90 minutes and examined by Northern blot analysis using a fos cDNA probe.
Bovine articular chondrocytes were isolated and plated as previously described (Kandel R. A. et al. Biochim. Biophys. Acta. 1053, 130-134, 1990). […] The amount of ^3 H-AA liberated into the supernatant was determined. To measure PGE2 production, chondrocytes were incubated for 6 hours in Ham's F12 medium, either alone or with IL 1 or PMA. […] In order to examine the expression of c-fos and c-jun, chondrocytes were incubated for 1 hour in the presence of IL-1, PMA or AA (3 μM). Chondrocytes were washed in PBS and the total RNA extracted as previously described (Cruz. et al, 1991, Biochem. J. 277, 327-330). RNA samples were run on formaldehyde agarose gels and transferred to nylon membrane for northern analysis using cDNA probes for c-fos and c-jun.
The RNA was extracted and examined by Northern blot analysis using cDNA probes for c-fos and collagenase.

[5] = system: tumor growth; assay: tumor growth in vivo, orthovanadate and N-acetylcysteine (Example 7); set-up: species or system mice; conditions: combination with orthovanadate
Protocol: Since N-acetylcysteine is converted to glutathione in cells, higher levels of glutathione may not only reduce orthovanadate induced toxicity but may also reduce tumor formation.
Twenty mice were injected subcutaneously with 2×10^5 cells on Day 1. At day 4, the mice were divided into four groups of five mice. Group one (control) received subcutaneous injections of 50 μl of water. Group two received daily intraperitoneal injections of 50 μl of 250 mM N-acetylcysteine. Group three received daily subcutaneous injections of 50 μl of 10 mg/ml of orthovanadate. Group four received daily intraperitoneal injections of 50 μl of […] N-acetylcysteine and 20 minutes later received 50 μl of subcutaneous injection of 50 μl of 10 mg/ml of orthovanadate. On day 10 the treatment was stopped. The animals were sacrificed on Day 13 and analyzed for tumor growth.

[6] = system: collagenase; assay: collagenase mRNA expression in chondrocytes (Northern blot); assay type: cell-based, bovine; conditions: in the presence of IL 1; N-acetylcysteine 20 mM for 20 min
Description: as §1
Although IL 1 stimulated superoxide production, it was not known whether IL 1 induced fos and jun expression was dependent on the production of superoxides. In order to elucidate this possibility, the effect of DPI on fos and jun mRNA levels induced by IL 1 was investigated. RNA from chondrocytes treated with IL 1 in the presence and absence of DPI were analyzed by Northern blot analysis using either fos or collagenase cDNA probes. […] Similar data has been obtained for IL 1 induced jun expression. Furthermore, inhibition of fos and jun expression by DPI was sufficient to suppress IL 1 induced and constitutive collagenase expression.
Cells were also incubated as described above with 20 mM N-acetylcysteine for 20 min. and then incubated with IL 1 for an additional 1 or 12 hours. The RNA was extracted and examined by Northern blot analysis using cDNA probes for c-fos and collagenase. N-acetylcysteine which is converted to GSH intracellularly was also found to reduce the levels of fos and collagenase expression in response to IL 1 (FIG. 5). Presumably the higher intracellular levels of GSH reduced H2 O2 and superoxide levels and suppressed the induction of fos and collagenase expression.

`CC(=O)N[C@@H](CS)C(=O)O` [N-acetylcysteine] was tested, and the “inhibition of TNFα and bFGF induced c-fos mRNA levels” value [1] was “inhibit”, the “arthritis development / clinical severity, NAC alone” value [2] was “developed severe arthritis; also recorded: no appreciable effect” and the “production of metalloproteases, such as collagenase” value [3] was “inhibit”. For the same compound, the “IL 1 induction of fos” value [4] was “reduce”, the “toxic effects observed with orthovanadate alone” value [5] was “reduce the slight toxic effects” and the “IL 1 induction of collagenase” value [6] was “reduce”.
